From ChEMBL document CHEMBL1201862, “PubChem BioAssay data set” (2004)
The source made the active and inactive calls.

Columns and labels:
Bcl-2-like protein 10 = Bcl-2-like protein 10 (Homo sapiens, UniProt Q9HD36); assay: displacers of TR3 peptide from Bcl-B, primary screen, selectivity assay for Bfl-1 inhibitor project, biochemical, fluorescence polarization, FITC-TR3 peptide (AID 748);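 note: fluorescence polarization from a fluorescein-labelled TR3 peptide binding purified Bcl-B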
[1] = target: Neurotensin receptor type 1 (Homo sapiens, UniProt P30989); format: functional;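 note: Image-based confirmatory dose-response assay measuring agonist activity at NTR1; NTR1-expressing U2OS osteosarcoma cells imaged for beta-arrestin GFP spot formation; agonist potency where compounds increase beta-arrestin recruitment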
Galanin receptor type 2 = Galanin receptor type 2 (Homo sapiens, UniProt O43603); assay: Dose Response cell-based high-throughput screening assay to identify antagonists of galanin receptor 2 (GALR2). [Related pubchem assays: 828, 866 ]; format: functional
[2] = cytotoxicity in HEK-293T cells, dose response, cytotoxicity control for BCR NF-kB inhibitor project, luminescence, B-cell screen hits (AID 489021); format: functional, cell-based;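 note: HEK-293T cells carrying an NF-kB luciferase reporter; cells exposed to compound for about 14 hours before viability readout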
INS1 = assay: beta cell apoptosis inhibitors, cytokine rescue, dose response, luminescence, retest (AID 449756); format: functional, cell-based; conditions: Rattus norvegicus;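 note: cell death triggered by IL-1 beta plus TNF-alpha plus IFN-gamma mixture; protective hits raise ATP signal compared with cytokine alone wells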
Galanin receptor type 3 = target: T1, Galanin receptor type 3 (Homo sapiens, UniProt O60755); assay: Fluorescence-based cell-based primary high throughput dose response assay to identify antagonists of the Galanin Receptor 3 (GalR3).; format: functional
T1 sequence (O60755 whole entry): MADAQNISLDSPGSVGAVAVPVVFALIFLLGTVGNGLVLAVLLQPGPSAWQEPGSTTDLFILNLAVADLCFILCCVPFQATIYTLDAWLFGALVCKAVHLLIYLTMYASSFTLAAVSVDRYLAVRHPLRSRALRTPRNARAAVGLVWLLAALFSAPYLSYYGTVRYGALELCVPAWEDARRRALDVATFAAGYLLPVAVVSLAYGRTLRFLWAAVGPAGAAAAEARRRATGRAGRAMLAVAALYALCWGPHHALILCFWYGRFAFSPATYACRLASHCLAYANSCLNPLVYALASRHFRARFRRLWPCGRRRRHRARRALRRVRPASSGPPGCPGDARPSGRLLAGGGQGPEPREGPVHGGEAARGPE

cells [3] = format: functional, cell-based; conditions: HEK-CNG
HEK293 [4] = assay: PMA/Ionomycin induced NF-kB luciferase assay in 293- NF-kB-Luc stable cells. [Related pubchem assays: 1299, 1270, 1295, 1375, 1287, 1281, 1293, 1291, 1289, 1280, 465, 1364, 1282, 1372, 1365, 1370, 1367, 1366, 1269, 1373, 1292, 1290, 1302, 1371, 1283, 1271, 1294, 1374, 1368, 1369 ]; format: functional, cell-based; conditions: Homo sapiens
[5] = target: Luciferin 4-monooxygenase (Photinus pyralis, UniProt P08659); assay: In vitro luciferase assay using purified luciferase. [Related pubchem assays: 1299, 1270, 1295, 1375, 1287, 1281, 1293, 1291, 1289, 1280, 465, 1364, 1282, 1372, 1365, 1370, 1367, 1366, 1266, 1373, 1292, 1290, 1302, 1371, 1283, 1271, 1294, 1374, 1368, 1369 ]
HEK293 [6] = assay: Cytotoxicity assay in HEK293 cells. [Related pubchem assays (depositor defined):AID1266, AID1269, AID1270, AID1271, AID1280, AID1281, AID1282, AID1283, AID1287, AID1289, AID1290, AID1291, AID1292, AID1293, AID1294, AID1295, AID1299, AID1302, AID1364, AID1365, AID1366, AID1367, AID1369, AID1370, AID1371, AID1372, AID1373, AID1374, AID1375, AID1384 …; format: functional, cell-based; conditions: Homo sapiens
HEK293 [7] = assay: TNF Induced NF-kB Luciferase in 293-NF-kB-Luc Stable Cells. [Related pubchem assays: 1266, 1299, 1269, 1373, 1292, 1290, 1302, 1371, 1283, 1270, 1295, 1271, 1375, 1294, 1374, 1281, 1293, 1291, 1289, 1280, 465, 1368, 1364, 1282, 1372, 1365, 1369, 1370, 1367, 1366 ]; format: functional, cell-based; conditions: Homo sapiens
HEK293 [8] = assay: inhibitors of LMP1-driven NF-kB reporter, dose response, cell-based, HEK293, luciferase, cherry-pick (AID 588343); format: functional; conditions: Homo sapiens
[9] = target: T2, Replicative DNA helicase DnaB (Mycobacterium tuberculosis, UniProt P9WMR3); assay: DnaB intein splicing inhibitors, dose response, biochemical, cell-free fluorescence (AID 449749); format: functional
T2 sequence (P9WMR3 whole entry): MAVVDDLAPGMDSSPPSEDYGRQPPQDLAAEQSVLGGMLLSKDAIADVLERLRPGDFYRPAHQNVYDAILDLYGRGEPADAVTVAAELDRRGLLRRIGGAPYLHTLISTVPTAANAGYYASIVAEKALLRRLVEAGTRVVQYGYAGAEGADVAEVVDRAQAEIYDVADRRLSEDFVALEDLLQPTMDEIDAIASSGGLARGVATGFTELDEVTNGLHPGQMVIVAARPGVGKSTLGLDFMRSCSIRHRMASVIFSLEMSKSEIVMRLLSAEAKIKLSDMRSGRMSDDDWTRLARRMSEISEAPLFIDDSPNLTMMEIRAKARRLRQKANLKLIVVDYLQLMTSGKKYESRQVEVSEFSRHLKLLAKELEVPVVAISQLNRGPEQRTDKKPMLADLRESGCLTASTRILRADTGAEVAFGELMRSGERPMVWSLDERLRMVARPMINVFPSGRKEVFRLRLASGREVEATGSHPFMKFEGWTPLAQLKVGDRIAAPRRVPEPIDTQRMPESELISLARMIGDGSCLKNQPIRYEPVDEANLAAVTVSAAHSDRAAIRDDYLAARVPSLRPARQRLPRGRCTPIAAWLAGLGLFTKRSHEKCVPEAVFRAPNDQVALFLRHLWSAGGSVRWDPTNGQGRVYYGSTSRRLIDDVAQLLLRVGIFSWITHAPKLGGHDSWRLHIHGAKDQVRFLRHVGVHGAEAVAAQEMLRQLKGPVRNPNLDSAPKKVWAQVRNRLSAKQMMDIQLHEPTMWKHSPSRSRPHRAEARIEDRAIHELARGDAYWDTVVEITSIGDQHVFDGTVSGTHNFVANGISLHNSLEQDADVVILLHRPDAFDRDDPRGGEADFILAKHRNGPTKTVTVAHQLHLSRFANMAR

Protein RecA = target: T3, Protein RecA (Mycobacterium tuberculosis, UniProt P9WHJ3); assay: Fluorescence Cell-Free Homogeneous Dose Retest to Identify Inhibitors of RecA-Intein Splicing Activity. [Related pubchem assays (depositor defined):AID2097, AID2223, AID489010, AID492950]; format: functional
T3 sequence (P9WHJ3 whole entry): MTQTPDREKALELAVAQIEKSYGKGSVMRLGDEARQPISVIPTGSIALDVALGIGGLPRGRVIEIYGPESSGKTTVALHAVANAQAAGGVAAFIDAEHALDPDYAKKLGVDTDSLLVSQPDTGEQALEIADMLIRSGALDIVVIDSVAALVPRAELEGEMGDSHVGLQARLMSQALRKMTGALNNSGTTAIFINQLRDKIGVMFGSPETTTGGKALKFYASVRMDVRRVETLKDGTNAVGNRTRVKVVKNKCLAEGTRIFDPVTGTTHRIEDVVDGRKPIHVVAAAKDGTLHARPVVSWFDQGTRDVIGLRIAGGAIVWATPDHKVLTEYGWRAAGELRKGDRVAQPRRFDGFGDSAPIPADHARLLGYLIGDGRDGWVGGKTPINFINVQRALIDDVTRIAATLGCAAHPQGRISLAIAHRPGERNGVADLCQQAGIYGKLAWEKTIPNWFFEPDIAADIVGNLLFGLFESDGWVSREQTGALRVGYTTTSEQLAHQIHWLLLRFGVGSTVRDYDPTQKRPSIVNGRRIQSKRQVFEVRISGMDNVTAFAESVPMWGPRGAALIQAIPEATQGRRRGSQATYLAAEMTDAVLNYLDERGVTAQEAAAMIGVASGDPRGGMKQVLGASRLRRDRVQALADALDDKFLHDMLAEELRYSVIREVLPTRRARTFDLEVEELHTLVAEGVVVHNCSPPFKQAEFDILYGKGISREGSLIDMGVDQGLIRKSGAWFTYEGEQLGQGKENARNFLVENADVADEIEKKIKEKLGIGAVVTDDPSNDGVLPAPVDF

Aspartyl aminopeptidase = Aspartyl aminopeptidase (Plasmodium falciparum 3D7, UniProt Q8I2J3)
Procathepsin L = Procathepsin L (Homo sapiens, UniProt P07711)
[10] = target: Ras and Rab interactor 1/Tyrosine-protein kinase ABL1 (Homo sapiens, UniProt P00519+Q13671); format: functional;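 note: biochemical TR-FRET dose-response test measuring inhibition of binding between Rin1 and Abl proteins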
[11] = target: T4, Histone-lysine N-methyltransferase NSD2 (Homo sapiens, UniProt O96028); format: biochemical
T4 sequence (O96028 whole entry): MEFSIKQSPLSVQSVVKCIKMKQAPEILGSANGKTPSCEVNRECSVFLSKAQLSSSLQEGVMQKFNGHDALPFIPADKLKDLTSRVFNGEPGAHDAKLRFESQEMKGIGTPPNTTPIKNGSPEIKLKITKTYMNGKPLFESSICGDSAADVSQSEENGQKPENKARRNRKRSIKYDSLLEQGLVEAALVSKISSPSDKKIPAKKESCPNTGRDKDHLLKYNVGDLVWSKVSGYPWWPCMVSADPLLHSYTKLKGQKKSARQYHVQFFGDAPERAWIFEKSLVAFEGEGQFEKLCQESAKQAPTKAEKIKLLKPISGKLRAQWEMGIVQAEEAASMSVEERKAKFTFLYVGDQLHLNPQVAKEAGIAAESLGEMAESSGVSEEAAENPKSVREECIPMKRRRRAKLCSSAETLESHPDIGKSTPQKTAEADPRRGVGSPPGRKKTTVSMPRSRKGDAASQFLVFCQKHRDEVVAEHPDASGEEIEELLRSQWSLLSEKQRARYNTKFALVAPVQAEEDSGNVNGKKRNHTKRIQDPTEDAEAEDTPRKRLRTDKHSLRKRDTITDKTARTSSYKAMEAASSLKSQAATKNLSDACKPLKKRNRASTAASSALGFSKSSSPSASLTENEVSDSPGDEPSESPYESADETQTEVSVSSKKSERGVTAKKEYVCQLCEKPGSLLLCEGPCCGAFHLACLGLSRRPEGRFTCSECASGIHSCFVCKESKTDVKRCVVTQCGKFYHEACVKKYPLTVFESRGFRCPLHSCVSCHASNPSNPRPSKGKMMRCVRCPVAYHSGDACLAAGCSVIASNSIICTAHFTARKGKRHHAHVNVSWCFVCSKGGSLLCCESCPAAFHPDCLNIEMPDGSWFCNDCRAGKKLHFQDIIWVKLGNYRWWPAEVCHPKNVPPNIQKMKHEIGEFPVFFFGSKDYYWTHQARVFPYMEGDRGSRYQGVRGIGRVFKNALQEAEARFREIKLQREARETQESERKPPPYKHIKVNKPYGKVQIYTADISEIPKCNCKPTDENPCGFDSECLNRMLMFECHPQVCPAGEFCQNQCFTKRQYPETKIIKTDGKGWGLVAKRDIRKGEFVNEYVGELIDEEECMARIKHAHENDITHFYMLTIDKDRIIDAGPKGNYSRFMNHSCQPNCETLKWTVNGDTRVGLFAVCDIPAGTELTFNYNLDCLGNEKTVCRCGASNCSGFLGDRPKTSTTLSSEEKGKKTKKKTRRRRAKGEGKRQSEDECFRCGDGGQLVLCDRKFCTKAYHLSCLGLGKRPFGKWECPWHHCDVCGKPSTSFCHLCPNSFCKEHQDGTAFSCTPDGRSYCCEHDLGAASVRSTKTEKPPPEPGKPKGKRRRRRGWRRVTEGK

Protein Tat = target: T5, Protein Tat (Human immunodeficiency virus type 1 group M subtype B (isolate HXB2)(HIV-1), UniProt P04608); format: functional;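 note: tat binding to TAR RNA read out by fluorescence polarization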
T5 sequence (P04608 whole entry): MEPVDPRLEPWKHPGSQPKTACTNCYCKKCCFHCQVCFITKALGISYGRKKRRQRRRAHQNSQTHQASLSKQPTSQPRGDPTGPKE

cells [12] = assay: cells

Chain of Ras and Rab interactor 1/Tyrosine-protein kinase ABL1 (P00519 whole entry): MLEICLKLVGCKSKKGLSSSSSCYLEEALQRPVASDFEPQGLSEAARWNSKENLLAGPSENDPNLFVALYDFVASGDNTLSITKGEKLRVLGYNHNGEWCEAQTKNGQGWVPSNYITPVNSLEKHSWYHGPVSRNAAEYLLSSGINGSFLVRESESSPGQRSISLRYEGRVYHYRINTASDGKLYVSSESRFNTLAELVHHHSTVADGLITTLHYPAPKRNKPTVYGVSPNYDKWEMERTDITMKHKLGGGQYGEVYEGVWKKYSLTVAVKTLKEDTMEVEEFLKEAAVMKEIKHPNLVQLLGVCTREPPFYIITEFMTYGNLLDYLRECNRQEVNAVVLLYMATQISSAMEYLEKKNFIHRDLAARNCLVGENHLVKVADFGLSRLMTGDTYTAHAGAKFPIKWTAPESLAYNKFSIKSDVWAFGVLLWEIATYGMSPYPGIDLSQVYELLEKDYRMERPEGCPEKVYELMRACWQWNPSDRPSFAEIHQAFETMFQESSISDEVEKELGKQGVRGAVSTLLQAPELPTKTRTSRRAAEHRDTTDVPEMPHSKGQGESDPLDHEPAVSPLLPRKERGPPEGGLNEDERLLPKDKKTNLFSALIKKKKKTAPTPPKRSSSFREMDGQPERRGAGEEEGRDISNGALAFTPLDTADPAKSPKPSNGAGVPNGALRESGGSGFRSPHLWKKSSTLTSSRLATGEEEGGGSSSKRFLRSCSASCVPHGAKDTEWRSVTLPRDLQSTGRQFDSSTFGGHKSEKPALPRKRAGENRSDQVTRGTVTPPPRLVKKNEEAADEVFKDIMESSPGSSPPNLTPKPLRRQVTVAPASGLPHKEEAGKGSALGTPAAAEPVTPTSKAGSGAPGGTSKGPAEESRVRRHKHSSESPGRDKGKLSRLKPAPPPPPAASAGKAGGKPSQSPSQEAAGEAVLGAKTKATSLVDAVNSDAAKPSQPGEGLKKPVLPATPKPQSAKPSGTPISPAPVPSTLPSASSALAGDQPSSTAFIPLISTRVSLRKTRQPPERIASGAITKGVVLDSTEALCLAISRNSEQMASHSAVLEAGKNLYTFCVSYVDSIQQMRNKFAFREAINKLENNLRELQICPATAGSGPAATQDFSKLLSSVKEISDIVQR
Chain of Ras and Rab interactor 1/Tyrosine-protein kinase ABL1 (Q13671 whole entry): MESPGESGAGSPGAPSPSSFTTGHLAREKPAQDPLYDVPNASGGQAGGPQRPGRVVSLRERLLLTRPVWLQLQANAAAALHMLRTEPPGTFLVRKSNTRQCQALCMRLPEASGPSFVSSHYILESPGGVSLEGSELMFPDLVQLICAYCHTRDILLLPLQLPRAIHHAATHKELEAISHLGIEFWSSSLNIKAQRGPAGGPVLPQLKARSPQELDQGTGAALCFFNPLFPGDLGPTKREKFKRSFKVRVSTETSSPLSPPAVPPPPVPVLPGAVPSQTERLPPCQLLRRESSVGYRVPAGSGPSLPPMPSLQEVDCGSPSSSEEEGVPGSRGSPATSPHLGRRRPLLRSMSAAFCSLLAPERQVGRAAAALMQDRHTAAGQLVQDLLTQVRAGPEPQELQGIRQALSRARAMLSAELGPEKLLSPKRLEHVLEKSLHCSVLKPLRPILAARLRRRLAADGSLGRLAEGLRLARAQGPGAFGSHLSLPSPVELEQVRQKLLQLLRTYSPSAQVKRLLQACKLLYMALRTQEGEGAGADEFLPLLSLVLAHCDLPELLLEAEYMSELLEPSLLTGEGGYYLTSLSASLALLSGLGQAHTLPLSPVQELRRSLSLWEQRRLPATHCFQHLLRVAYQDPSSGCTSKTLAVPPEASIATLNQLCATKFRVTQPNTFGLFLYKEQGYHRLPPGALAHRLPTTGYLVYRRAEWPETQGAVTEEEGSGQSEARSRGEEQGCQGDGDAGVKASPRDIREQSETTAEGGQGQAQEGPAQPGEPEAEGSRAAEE
Chain of Luciferin 4-monooxygenase (P08659 whole entry): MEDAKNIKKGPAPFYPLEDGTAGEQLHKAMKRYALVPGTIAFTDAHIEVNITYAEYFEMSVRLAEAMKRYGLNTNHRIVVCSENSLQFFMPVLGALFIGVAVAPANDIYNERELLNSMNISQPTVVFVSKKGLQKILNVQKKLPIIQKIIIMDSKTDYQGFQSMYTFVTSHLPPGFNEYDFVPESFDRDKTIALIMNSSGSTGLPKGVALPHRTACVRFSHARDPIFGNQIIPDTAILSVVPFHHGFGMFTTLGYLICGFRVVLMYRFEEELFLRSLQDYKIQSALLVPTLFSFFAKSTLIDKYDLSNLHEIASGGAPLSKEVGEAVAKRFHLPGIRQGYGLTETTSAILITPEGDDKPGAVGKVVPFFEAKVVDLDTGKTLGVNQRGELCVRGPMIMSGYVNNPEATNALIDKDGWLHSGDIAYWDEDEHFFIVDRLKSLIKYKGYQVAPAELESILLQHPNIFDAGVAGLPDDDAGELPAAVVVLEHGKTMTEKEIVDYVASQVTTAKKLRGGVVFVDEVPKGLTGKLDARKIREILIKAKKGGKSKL
Chain of Procathepsin L (P07711 whole entry): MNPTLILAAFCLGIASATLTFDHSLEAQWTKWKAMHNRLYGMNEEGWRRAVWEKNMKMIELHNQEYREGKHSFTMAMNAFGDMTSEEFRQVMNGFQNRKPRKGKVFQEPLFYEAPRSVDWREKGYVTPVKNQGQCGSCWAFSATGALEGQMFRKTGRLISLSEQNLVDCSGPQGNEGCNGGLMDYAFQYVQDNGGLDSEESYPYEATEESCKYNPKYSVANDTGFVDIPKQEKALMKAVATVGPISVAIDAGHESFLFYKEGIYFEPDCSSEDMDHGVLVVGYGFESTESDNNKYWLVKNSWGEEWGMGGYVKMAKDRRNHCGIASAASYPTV
Chain of Galanin receptor type 2 (O43603 whole entry): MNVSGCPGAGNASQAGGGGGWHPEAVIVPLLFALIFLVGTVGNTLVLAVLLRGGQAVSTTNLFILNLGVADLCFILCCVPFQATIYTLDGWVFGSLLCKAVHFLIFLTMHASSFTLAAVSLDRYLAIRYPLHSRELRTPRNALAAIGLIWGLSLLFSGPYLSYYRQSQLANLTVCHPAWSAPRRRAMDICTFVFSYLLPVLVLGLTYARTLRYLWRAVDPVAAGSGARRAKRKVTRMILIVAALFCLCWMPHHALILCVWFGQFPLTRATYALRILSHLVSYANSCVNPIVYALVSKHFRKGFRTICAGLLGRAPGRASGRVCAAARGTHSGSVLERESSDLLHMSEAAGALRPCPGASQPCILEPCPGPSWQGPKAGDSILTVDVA
Chain of Aspartyl aminopeptidase (Q8I2J3 whole entry): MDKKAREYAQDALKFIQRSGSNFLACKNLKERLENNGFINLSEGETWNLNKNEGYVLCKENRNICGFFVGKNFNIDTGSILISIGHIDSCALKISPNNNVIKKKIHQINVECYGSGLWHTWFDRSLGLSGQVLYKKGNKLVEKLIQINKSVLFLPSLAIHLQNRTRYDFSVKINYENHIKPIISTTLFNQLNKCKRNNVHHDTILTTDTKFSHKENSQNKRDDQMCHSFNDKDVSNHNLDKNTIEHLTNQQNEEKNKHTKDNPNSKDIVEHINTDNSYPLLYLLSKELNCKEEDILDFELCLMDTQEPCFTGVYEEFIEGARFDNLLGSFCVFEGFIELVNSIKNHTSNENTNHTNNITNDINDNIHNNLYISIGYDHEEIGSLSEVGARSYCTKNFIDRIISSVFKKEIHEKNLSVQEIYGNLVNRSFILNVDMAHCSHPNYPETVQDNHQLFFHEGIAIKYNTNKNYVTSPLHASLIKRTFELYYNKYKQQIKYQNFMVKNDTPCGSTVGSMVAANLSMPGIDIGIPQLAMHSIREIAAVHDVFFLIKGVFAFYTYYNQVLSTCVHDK
Chain of Neurotensin receptor type 1 (P30989 whole entry): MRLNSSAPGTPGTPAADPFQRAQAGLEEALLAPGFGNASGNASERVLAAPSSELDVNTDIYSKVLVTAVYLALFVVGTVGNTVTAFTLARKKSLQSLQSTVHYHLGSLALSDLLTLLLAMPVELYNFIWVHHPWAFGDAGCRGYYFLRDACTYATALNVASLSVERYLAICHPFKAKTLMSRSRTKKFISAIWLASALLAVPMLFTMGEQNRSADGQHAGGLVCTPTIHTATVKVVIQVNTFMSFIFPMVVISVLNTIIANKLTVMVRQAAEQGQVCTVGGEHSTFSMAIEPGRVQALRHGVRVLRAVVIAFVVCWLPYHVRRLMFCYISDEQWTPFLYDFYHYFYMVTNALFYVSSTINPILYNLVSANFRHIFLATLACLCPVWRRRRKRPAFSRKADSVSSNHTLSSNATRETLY
Chain of Bcl-2-like protein 10 (Q9HD36 whole entry): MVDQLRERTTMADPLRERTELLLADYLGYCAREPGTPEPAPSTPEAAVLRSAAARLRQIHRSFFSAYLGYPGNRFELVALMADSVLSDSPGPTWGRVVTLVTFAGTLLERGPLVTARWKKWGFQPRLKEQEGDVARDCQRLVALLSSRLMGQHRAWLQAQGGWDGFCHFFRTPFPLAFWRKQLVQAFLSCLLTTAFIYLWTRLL

Compound: c1ccc(-c2nn3c(Cn4nnc5ccccc54)nnc3s2)nc1
- IC50 (Bcl-2-like protein 10): 34.6 µM (active)

Compound: O=C(/C=C\c1ccccc1OC(=O)c1ccccc1F)c1cc2ccccc2o1
- EC50 [1]: 12 µM (active)

Compound: O=S(=O)(NCc1ccncc1)c1ccc(Br)s1
- IC50 (Galanin receptor type 2): > 42 µM (not active)
- IC50 [2]: > 80 µM (inactive)
- AC50 (INS1): 2.91 µM (active)
- IC50 (Galanin receptor type 3): 2.06 µM (active)
- EC50 (cells [3]): > 29.9 µM (inactive)

Compound: Cc1n[nH]c2c1C(c1c(C)nn(-c3ccccc3)c1Cl)C(C#N)=C(N)O2 (stereo not given)
- EC50 (HEK293 [4]): 1 µM (active)
- EC50 [5]: > 8 µM (not active)
- EC50 (HEK293 [6]): > 8 µM (inactive)
- EC50 (HEK293 [7]): 1.68 µM (active)
- AC50 (HEK293 [8]): 7.01 µM (active)
- AC50 [9]: 14 µM (active)
- EC50 (Protein RecA): 13.5 µM (active)

Compound: O=C(/C=C/c1ccc(O)c(O)c1)OC1C(O)CC(OC(=O)/C=C/c2ccc(O)c(O)c2)(C(=O)O)CC1O (stereo not given)
- IC50 (Aspartyl aminopeptidase): 1.94 µM (active)
- IC50 (Procathepsin L): > 59.6 µM (not active)
- IC50 [10]: 18.9 µM (inactive)
- AC50 [11]: 5.43 µM (active)
- IC50 (Protein Tat): 85.2 µM (inconclusive)
- IC50 (cells [12]): 31.9 µM (active)
